Laboratory results published in patent US20230073777A1, “CYCLIC-AMP RESPONSE ELEMENT BINDING PROTEIN (CBP) AND/OR ADENOVIRAL E1A BINDING PROTEIN OF 300 KDA (P300) DEGRADATION COMPOUNDS AND METHODS OF USE” (CULLGEN (SHANGHAI), INC., priority 2019, published 2023).
Where two headings read alike, the source gives them in different places.

What was measured:
LNCaP cells = experiment: LNCaP cell viability assay (CellTiter-Glo); format: cell-based; conditions: Homo sapiens, 72 h, LNCaP prostate cancer cell viability inhibition, 3 days
Method in brief: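 Three-day treatment of LNCaP cells (5000 per well) across a 12-point, 3-fold dilution series starting at 10 μM. ATP luminescence (CellTiter-Glo) relative to untreated controls gave dose-response curves fitted nonlinearly for IC50.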

P300 = P300 (Homo sapiens, UniProt Q09472); experiment: Immunoblotting of P300 protein levels in LNCaP or 22RV1 cells; format: cell-based; parameters: LNCaP or 22RV1 cells that express CBP/P300 proteins were treated with GNE-781 or the bivalent compounds; endogenous in cells; host or cells: LNCaP (clone FGC) or 22RV1 cells; conditions: read-out: Degradation (10 nM)
P300, sequence (Q09472 whole entry): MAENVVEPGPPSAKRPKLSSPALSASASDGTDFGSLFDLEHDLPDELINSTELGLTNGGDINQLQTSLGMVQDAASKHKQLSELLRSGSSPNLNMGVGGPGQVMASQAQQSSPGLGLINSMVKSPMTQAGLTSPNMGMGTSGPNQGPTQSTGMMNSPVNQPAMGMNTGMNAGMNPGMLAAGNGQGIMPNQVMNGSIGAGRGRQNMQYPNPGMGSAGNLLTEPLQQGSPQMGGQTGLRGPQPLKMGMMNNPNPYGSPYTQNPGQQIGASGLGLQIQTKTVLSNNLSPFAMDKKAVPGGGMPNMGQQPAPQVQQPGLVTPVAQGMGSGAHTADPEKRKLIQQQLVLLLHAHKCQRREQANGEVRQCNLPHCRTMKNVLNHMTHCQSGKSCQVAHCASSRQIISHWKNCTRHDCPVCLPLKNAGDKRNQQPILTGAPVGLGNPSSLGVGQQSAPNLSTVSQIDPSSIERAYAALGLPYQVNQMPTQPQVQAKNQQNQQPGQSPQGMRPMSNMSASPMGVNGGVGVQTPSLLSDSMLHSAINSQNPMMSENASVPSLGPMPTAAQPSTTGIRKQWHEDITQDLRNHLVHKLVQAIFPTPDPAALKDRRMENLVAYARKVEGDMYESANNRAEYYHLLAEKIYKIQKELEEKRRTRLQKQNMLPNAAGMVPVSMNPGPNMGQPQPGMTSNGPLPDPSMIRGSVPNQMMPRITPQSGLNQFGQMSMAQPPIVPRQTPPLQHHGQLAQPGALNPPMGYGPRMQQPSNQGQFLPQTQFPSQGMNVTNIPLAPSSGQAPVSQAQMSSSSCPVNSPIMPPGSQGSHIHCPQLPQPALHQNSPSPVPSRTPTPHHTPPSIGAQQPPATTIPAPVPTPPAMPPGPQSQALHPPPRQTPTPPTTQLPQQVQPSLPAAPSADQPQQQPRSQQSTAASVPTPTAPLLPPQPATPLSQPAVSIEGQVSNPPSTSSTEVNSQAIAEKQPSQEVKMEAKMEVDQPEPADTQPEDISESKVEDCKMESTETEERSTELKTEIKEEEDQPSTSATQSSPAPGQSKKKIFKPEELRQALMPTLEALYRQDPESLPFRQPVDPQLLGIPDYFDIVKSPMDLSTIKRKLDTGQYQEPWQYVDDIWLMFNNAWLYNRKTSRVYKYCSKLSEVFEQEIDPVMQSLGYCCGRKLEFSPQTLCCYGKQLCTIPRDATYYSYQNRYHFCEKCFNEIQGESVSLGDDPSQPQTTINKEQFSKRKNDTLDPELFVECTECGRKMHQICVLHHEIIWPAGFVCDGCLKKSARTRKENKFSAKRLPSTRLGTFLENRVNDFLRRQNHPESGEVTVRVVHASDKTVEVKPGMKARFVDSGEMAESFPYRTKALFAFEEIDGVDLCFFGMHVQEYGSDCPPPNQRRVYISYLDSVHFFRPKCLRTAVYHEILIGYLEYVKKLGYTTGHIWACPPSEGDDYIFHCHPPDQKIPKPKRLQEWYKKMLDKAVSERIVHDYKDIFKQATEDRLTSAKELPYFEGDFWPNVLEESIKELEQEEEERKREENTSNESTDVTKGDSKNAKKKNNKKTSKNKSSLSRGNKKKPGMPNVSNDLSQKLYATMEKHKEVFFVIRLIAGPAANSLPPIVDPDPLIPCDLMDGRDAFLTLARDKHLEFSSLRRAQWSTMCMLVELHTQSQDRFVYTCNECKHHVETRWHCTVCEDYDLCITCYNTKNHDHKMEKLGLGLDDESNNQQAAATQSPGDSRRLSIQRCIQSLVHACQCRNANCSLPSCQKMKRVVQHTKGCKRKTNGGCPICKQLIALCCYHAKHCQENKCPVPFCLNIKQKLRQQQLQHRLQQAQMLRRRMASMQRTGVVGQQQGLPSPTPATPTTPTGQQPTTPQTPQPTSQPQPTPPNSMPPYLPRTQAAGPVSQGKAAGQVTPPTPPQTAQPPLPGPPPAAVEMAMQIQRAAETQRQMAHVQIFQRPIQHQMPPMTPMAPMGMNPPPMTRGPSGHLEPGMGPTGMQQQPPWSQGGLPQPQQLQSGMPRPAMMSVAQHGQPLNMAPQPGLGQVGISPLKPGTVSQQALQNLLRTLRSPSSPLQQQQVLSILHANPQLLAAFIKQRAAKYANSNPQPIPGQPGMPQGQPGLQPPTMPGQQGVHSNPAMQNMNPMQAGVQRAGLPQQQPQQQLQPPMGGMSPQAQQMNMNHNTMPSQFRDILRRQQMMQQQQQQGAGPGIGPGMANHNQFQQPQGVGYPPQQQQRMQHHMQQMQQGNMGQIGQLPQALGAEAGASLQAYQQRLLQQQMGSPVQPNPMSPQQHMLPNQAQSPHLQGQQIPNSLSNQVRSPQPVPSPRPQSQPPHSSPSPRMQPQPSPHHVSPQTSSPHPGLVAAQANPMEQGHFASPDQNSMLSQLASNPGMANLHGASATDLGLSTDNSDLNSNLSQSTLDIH
Method in brief: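 P300/CBP levels quantified by chemiluminescent immunoblot band densitometry, normalized against tubulin or vinculin loading controls. Lysates came from LNCaP or 22RV1 cells exposed to compounds or DMSO vehicle for indicated times.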

[1] = percentage of inhibition of p300 at 10 nM (Table 2)
[2] = percentage of inhibition of p300 at 10 nM (Table 3)

Row | SMILES | IC50 (LNCaP cells; CellTiter-Glo (Table 2)) | inhibition at 0.01 µM (P300; [1]) | IC50 (LNCaP cells; CellTiter-Glo (Table 3)) | inhibition at 0.01 µM (P300; [2])
1 | CNC(=O)N1CCc2c(c(N3CCCc4cc(-c5cnn(CC(=O)NCC(=O)N[C@H](C(=O)N6C[C@H](O)C[C@H]6C(=O)NCc6ccc(-c7scnc7C)cc6)C(C)(C)C)c5)c(C(F)F)cc43)nn2C2CCOCC2)C1 [P-044] | > 10000 nM | < 20% | – | –
2 | CNC(=O)N1CCc2c(c(N3CCCc4cc(-c5cnn(CC(=O)NCCC(=O)N[C@H](C(=O)N6C[C@H](O)C[C@H]6C(=O)NCc6ccc(-c7scnc7C)cc6)C(C)(C)C)c5)c(C(F)F)cc43)nn2C2CCOCC2)C1 [P-045, 3-(7-(Difluoromethyl)-6-(1-(2-((3-(((S)-1-((2S,4R)-4-hydroxy-2-((4-(4-methylthiazol-5-yl)benzyl)carbamoyl)pyrrolidin-1-yl)-3,3-dimethyl-1-oxobutan-2-yl)amino)-3-oxopropyl)amino)-2-oxoethyl)-1H-pyrazol-4-yl)-3,4-dihydroquinolin-1(2H)-yl)-N-methyl-1-(tetrahydro-2H-pyran-4-yl)-1,4,6,7-tetrahydro-5H-pyrazolo[4,3-c]pyridine-5-carboxamide] | > 10000 nM | < 20% | – | –
3 | CNC(=O)N1CCc2c(c(N3CCCc4cc(-c5cnn(CC(=O)NCCCCC(=O)N[C@H](C(=O)N6C[C@H](O)C[C@H]6C(=O)NCc6ccc(-c7scnc7C)cc6)C(C)(C)C)c5)c(C(F)F)cc43)nn2C2CCOCC2)C1 [P-046, 3-(7-(Difluoromethyl)-6-(1-(2-((5-(((S)-1-((2S,4R)-4-hydroxy-2-((4-(4-methylthiazol-5-yl)benzyl)carbamoyl)pyrrolidin-1-yl)-3,3-dimethyl-1-oxobutan-2-yl)amino)-5-oxopentyl)amino)-2-oxoethyl)-1H-pyrazol-4-yl)-3,4-dihydroquinolin-1(2H)-yl)-N-methyl-1-(tetrahydro-2H-pyran-4-yl)-1,4,6,7-tetrahydro-5H-pyrazolo[4,3-c]pyridine-5-carboxamide] | 9040 nM | < 20% | – | –
4 | CNC(=O)N1CCc2c(c(N3CCCc4cc(-c5cnn(CC(=O)NCCCCCC(=O)N[C@H](C(=O)N6C[C@H](O)C[C@H]6C(=O)NCc6ccc(-c7scnc7C)cc6)C(C)(C)C)c5)c(C(F)F)cc43)nn2C2CCOCC2)C1 [P-047, 3-(7-(Difluoromethyl)-6-(1-(2-((6-(((S)-1-((2S,4R)-4-hydroxy-2-((4-(4-methylthiazol-5-yl)benzyl)carbamoyl)pyrrolidin-1-yl)-3,3-dimethyl-1-oxobutan-2-yl)amino)-6-oxohexyl)amino)-2-oxoethyl)-1H-pyrazol-4-yl)-3,4-dihydroquinolin-1(2H)-yl)-N-methyl-1-(tetrahydro-2H-pyran-4-yl)-1,4,6,7-tetrahydro-5H-pyrazolo[4,3-c]pyridine-5-carboxamide] | 2560 nM | < 20% | – | –
5 | CNC(=O)N1CCc2c(c(N3CCCc4cc(-c5cnn(CC(=O)NCCCCCCCC(=O)N[C@H](C(=O)N6C[C@H](O)C[C@H]6C(=O)NCc6ccc(-c7scnc7C)cc6)C(C)(C)C)c5)c(C(F)F)cc43)nn2C2CCOCC2)C1 [P-048, 3-(7-(Difluoromethyl)-6-(1-(2-((8-(((S)-1-((2S,4R)-4-hydroxy-2-((4-(4-methylthiazol-5-yl)benzyl)carbamoyl)pyrrolidin-1-yl)-3,3-dimethyl-1-oxobutan-2-yl)amino)-8-oxooctyl)amino)-2-oxoethyl)-1H-pyrazol-4-yl)-3,4-dihydroquinolin-1(2H)-yl)-N-methyl-1-(tetrahydro-2H-pyran-4-yl)-1,4,6,7-tetrahydro-5H-pyrazolo[4,3-c]pyridine-5-carboxamide] | 471 nM | < 20% | – | –
6 | CNC(=O)N1CCc2c(c(N3CCCc4cc(-c5cnn(CC(=O)NCCCCCCCCCCC(=O)N[C@H](C(=O)N6C[C@H](O)C[C@H]6C(=O)NCc6ccc(-c7scnc7C)cc6)C(C)(C)C)c5)c(C(F)F)cc43)nn2C2CCOCC2)C1 [P-050, 3-(7-(Difluoromethyl)-6-(1-(2-((11-(((S)-1-((2S,4R)-4-hydroxy-2-((4-(4-methylthiazol-5-yl)benzyl)carbamoyl)pyrrolidin-1-yl)-3,3-dimethyl-1-oxobutan-2-yl)amino)-11-oxoundecyl)amino)-2-oxoethyl)-1H-pyrazol-4-yl)-3,4-dihydroquinolin-1(2H)-yl)-N-methyl-1-(tetrahydro-2H-pyran-4-yl)-1,4,6,7-tetrahydro-5H-pyrazolo[4,3-c]pyridine-5-carboxamide] | 111 nM | 20 to 50% | – | –
7 | CNC(=O)N1CCc2c(c(N3CCCc4cc(-c5cnn(C)c5)c(C(F)F)cc43)nn2C2CCN(C(=O)CCOCCNc3cccc4c3C(=O)N(C3CCC(=O)NC3=O)C4=O)CC2)C1 (centres unmarked) [P-051, 3-(7-(Difluoromethyl)-6-(1-methyl-1H-pyrazol-4-yl)-3,4-dihydroquinolin-1(2H)-yl)-1-(1-(3-(2-((2-(2,6-dioxopiperidin-3-yl)-1,3-dioxoisoindolin-4-yl)amino)ethoxy)propanoyl)piperidin-4-yl)-N-methyl-1,4,6,7-tetrahydro-5H-pyrazolo[4,3-c]pyridine-5-carboxamide] | – | – | 27.5 nM | < 20%
8 | CNC(=O)N1CCc2c(c(N3CCCc4cc(-c5cnn(C)c5)c(C(F)F)cc43)nn2C2CCN(C(=O)CCOCCOCCNc3cccc4c3C(=O)N(C3CCC(=O)NC3=O)C4=O)CC2)C1 (centres unmarked) [P-052, 3-(7-(Difluoromethyl)-6-(1-methyl-1H-pyrazol-4-yl)-3,4-dihydroquinolin-1(2H)-yl)-1-(1-(3-(2-(2-((2-(2,6-dioxopiperidin-3-yl)-1,3-dioxoisoindolin-4-yl)amino)ethoxy)ethoxy)propanoyl)piperidin-4-yl)-N-methyl-1,4,6,7-tetrahydro-5H-pyrazolo[4,3-c]pyridine-5-carboxamide] | – | – | 105 nM | < 20%
9 | CNC(=O)N1CCc2c(c(N3CCCc4cc(-c5cnn(C)c5)c(C(F)F)cc43)nn2C2CCN(C(=O)CCOCCOCCOCCNc3cccc4c3C(=O)N(C3CCC(=O)NC3=O)C4=O)CC2)C1 (centres unmarked) [P-053, 3-(7-(Difluoromethyl)-6-(1-methyl-1H-pyrazol-4-yl)-3,4-dihydroquinolin-1(2H)-yl)-1-(1-(3-(2-(2-(2-((2-(2,6-dioxopiperidin-3-yl)-1,3-dioxoisoindolin-4-yl)amino)ethoxy)ethoxy)ethoxy)propanoyl)piperidin-4-yl)-N-methyl-1,4,6,7-tetrahydro-5H-pyrazolo[4,3-c]pyridine-5-carboxamide] | – | – | 76.5 nM | 20 to 50%
10 | CNC(=O)N1CCc2c(c(N3CCCc4cc(-c5cnn(C)c5)c(C(F)F)cc43)nn2C2CCN(C(=O)CCOCCOCCOCCOCCNc3cccc4c3C(=O)N(C3CCC(=O)NC3=O)C4=O)CC2)C1 (centres unmarked) [P-054, 3-(7-(Difluoromethyl)-6-(1-methyl-1H-pyrazol-4-yl)-3,4-dihydroquinolin-1(2H)-yl)-1-(1-(1-((2-(2,6-dioxopiperidin-3-yl)-1,3-dioxoisoindolin-4-yl)amino)-3,6,9,12-tetraoxapentadecan-15-oyl)piperidin-4-yl)-N-methyl-1,4,6,7-tetrahydro-5H-pyrazolo[4,3-c]pyridine-5-carboxamide] | – | – | 122 nM | < 20%
11 | CNC(=O)N1CCc2c(c(N3CCCc4cc(-c5cnn(C)c5)c(C(F)F)cc43)nn2C2CCN(C(=O)CCOCCOCCOCCOCCOCCNc3cccc4c3C(=O)N(C3CCC(=O)NC3=O)C4=O)CC2)C1 (centres unmarked) [P-055, 3-(7-(Difluoromethyl)-6-(1-methyl-1H-pyrazol-4-yl)-3,4-dihydroquinolin-1(2H)-yl)-1-(1-(1-((2-(2,6-dioxopiperidin-3-yl)-1,3-dioxoisoindolin-4-yl)amino)-3,6,9,12,15-pentaoxaoctadecan-18-oyl)piperidin-4-yl)-N-methyl-1,4,6,7-tetrahydro-5H-pyrazolo[4,3-c]pyridine-5-carboxamide] | – | – | 161 nM | < 20%
12 | CNC(=O)N1CCc2c(c(N3CCCc4cc(-c5cnn(C)c5)c(C(F)F)cc43)nn2C2CCN(C(=O)CCC(=O)N[C@H](C(=O)N3C[C@H](O)C[C@H]3C(=O)NCc3ccc(-c4scnc4C)cc3)C(C)(C)C)CC2)C1 [P-056, 3-(7-(Difluoromethyl)-6-(1-methyl-1H-pyrazol-4-yl)-3,4-dihydroquinolin-1(2H)-yl)-1-(1-(4-(((S)-1-((2S,4R)-4-hydroxy-2-((4-(4-methylthiazol-5-yl)benzyl)carbamoyl)pyrrolidin-1-yl)-3,3-dimethyl-1-oxobutan-2-yl)amino)-4-oxobutanoyl)piperidin-4-yl)-N-methyl-1,4,6,7-tetrahydro-5H-pyrazolo[4,3-c]pyridine-5-carboxamide] | – | – | 75.6 nM | < 20%
13 | CNC(=O)N1CCc2c(c(N3CCCc4cc(-c5cnn(C)c5)c(C(F)F)cc43)nn2C2CCN(C(=O)CCCC(=O)N[C@H](C(=O)N3C[C@H](O)C[C@H]3C(=O)NCc3ccc(-c4scnc4C)cc3)C(C)(C)C)CC2)C1 [P-057, 3-(7-(Difluoromethyl)-6-(1-methyl-1H-pyrazol-4-yl)-3,4-dihydroquinolin-1(2H)-yl)-1-(1-(5-(((S)-1-((2S,4R)-4-hydroxy-2-((4-(4-methylthiazol-5-yl)benzyl)carbamoyl)pyrrolidin-1-yl)-3,3-dimethyl-1-oxobutan-2-yl)amino)-5-oxopentanoyl)piperidin-4-yl)-N-methyl-1,4,6,7-tetrahydro-5H-pyrazolo[4,3-c]pyridine-5-carboxamide] | – | – | 76.6 nM | < 20%
